One assay relates to Haemonchus contortus. The assay is described as follows: Efficacy against Haemonchus contortus in jirds. The class given is in vivo, jirds (Meriones unguiculatus). To be noted: 72 h, read-out: % Reduction in H. The method, boiled down:
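Jirds orally infected with ~750-3,000 H. contortus L3 larvae were dosed once, orally or subcutaneously, at 2, 10 and/or 50 mg/kg on day 10 post-infection. Stomach larval burden was counted at necropsy 3 days post-treatment; efficacy is the reduction of mean count versus untreated infected controls.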

Assay [1] relates to Haemonchus contortus larval stage 4, isolate with a resistance to benzimidazoles and ivermectin and anthelmintic-sensitive isolate. Kind of assay: Resistance-breaking activity against Haemonchus contortus L4 in vitro, resistant isolate compared with sensitive isolate. It is filed as cell-based. To be noted: isolate resistant to benzimidazoles and ivermectin vs sensitive isolate. The protocol: Anthelmintic resistance-breaking effects of compounds of this invention were tested in vitro using larval stage 4 (“L4”) of the parasitic nematode species Haemonchus contortus (Barber's pole worm in ruminants). One isolate of Haemonchus contortus with a resistance to benzimidazoles and ivermectin was tested in comparison to the anthelmintic-sensitive isolate of Haemonchus contortus. When conducting these experiments, various concentrations of the compounds were incubated in 96-well microtiter plates. Parasites were then distributed at 20 larvae per well. The anthelmintic effects were classified by microscopic examination. The microscopic examination included assessing mortality, damage, motility, progression of development, and neutral red uptake by the larvae in comparison to a DMSO-control and standard anthelmintics. The anthelmintic effects were defined by the minimum effective concentration (“MEC”).

Assay [2] concerns A. galli (intestinal roundworm of chicken) larval stage 3; O. dentatum (nodular worm of swine) larval stages 3 and 4. The assay is described as follows: Activity against Ascaridia galli and Oesophagostomum dentatum larvae in vitro (minimum effective concentration). The class given is cell-based.
Setting [3] is: jirds, 10 mg/kg, oral, single treatment, larvae burden in stomach 3 days after treatment.
Where [4] appears, read: sc, jirds, 10 mg/kg, subcutaneous, single treatment, larvae burden in stomach 3 days after treatment.
[5] abbreviates: in vitro, one or more of A. galli L3, O. dentatum L3, L4, threshold 1 μM, read-out: MEC (minimum effective concentration) against one or more of the tested nematodes.
Setting [6] is: in vitro, one or more of A. galli L3, O. dentatum L3, L4, threshold 7 μM, read-out: MEC (minimum effective concentration) against one or more of the tested nematodes.
Where [7] appears, read: in vitro, two or more of A. galli L3, O. dentatum L3, L4, threshold 1 μM, read-out: MEC (minimum effective concentration) against two or more of the tested nematodes.
Where [8] appears, read: read-out: MEC (minimum effective concentration) against one or more of the tested nematodes, in vitro, one or more of A. galli L3, O. dentatum L3, L4, threshold 1 μM.
Setting [9] is: read-out: MEC (minimum effective concentration) against one or more of the tested nematodes, in vitro, one or more of A. galli L3, O. dentatum L3, L4, threshold 7 μM.
The mark [10] stands for this setting: read-out: MEC (minimum effective concentration) against two or more of the tested nematodes, in vitro, two or more of A. galli L3, O. dentatum L3, L4, threshold 1 μM.
Where [11] appears, read: jirds, 50 mg/kg, oral, single treatment, larvae burden in stomach 3 days after treatment.
Setting [12] is: sc, jirds, 50 mg/kg, subcutaneous, single treatment, larvae burden in stomach 3 days after treatment.

Where two headings read alike, the source gives them in different places.

`O=C(CCN1CCC(c2ccc(Oc3ccccc3)cc2)CC1)N1CCC(Oc2ccc([N+](=O)[O-])c(C(F)(F)F)c2)CC1` [Example 45, 1-[4-(4-nitro-3-trifluoromethyl-phenoxy)-piperidin-1-yl]-3-[4-(4-phenoxy-phenyl)-piperidin-1-yl]-propan-1-one]: the inhibition in vivo at 50 mg/kg with Haemonchus contortus (po) and in the assay with Haemonchus contortus (sc) was 94% in each case. The “activity (MEC) against the resistant versus the sensitive isolate of Haemonchus contortus” value in assay [1] is “the same activity against the resistant and the sensitive isolate”.
On to `C[C@@H](CN1CCN(c2ccc(C(F)(F)F)cc2)CC1)C(=O)N1CCC(Nc2ccc([N+](=O)[O-])c(C(F)(F)F)c2)CC1` [Example 68, (S)-2-methyl-1-[4-(4-nitro-3-trifluoromethyl-phenylamino)-piperidin-1-yl]-3-[4-(4-trifluoromethyl-phenyl)-piperazin-1-yl]-propan-1-one], for which the inhibition in vivo at 10 mg/kg with Haemonchus contortus (setting [3]) and with Haemonchus contortus (setting [4]) was 99% throughout. The minimal effective concentration in assay [2] (setting [5]) is under 1 µM; in assay [2] (setting [6]), under 7 µM; in assay [2] (setting [7]), under 1 µM.
For the compound `Cc1cc(NC2CCN(C(=O)CCCN3CCN(c4ccc(C(F)(F)F)cc4)CC3)CC2)ncc1[N+](=O)[O-]` [Example 71, 1-[4-(4-methyl-5-nitro-pyridin-2-ylamino)-piperidin-1-yl]-4-[4-(4-trifluoromethyl-phenyl)-piperazin-1-yl]-butan-1-one], the inhibition in vivo at 50 mg/kg in the assay on Haemonchus contortus (po) was 55%; with Haemonchus contortus (sc), 35%. For the same compound, the minimal effective concentration was under 1 µM in assay [2] (setting [8]), under 7 µM in assay [2] (setting [9]) and under 1 µM in assay [2] (setting [10]).
As for `O=C(CCCN1CCN(c2ccc(C(F)(F)F)cc2)CC1)NC1CCN(c2ccc([N+](=O)[O-])c(C(F)(F)F)c2)CC1` [Example 73, N-[1-(4-nitro-3-trifluoromethyl-phenyl)-piperidin-4-yl]-4-[4-(4-trifluoromethyl-phenyl)-piperazin-1-yl]-butyramide], the inhibition in vivo at 10 mg/kg in the assay with Haemonchus contortus (setting [3]) came out at 54%; in the assay with Haemonchus contortus (setting [4]) it was 63%. Moreover, the minimal effective concentration in assay [2] (setting [5]) is under 1 µM; in assay [2] (setting [6]), under 7 µM; in assay [2] (setting [7]), under 1 µM.
As to `O=C(CCCN1CCN(c2ccc(C(F)(F)F)cc2)CC1)NC1CCN(c2ccc(SC(F)(F)F)cc2)CC1` [Example 76, 4-[4-(4-trifluoromethyl-phenyl)-piperazin-1-yl]-N-[1-(4-trifluoromethylsulfanyl-phenyl)-piperidin-4-yl]-butyramide], the figures for the inhibition in vivo at 10 mg/kg with Haemonchus contortus (setting [3]) and with Haemonchus contortus (setting [4]) were 67% and 13%, respectively. Also, the minimal effective concentration in assay [2] (setting [5]) is under 1 µM; in assay [2] (setting [6]), under 7 µM; in assay [2] (setting [7]) it was under 1 µM.
With `O=C(CCN1CCN(c2nnc(C(F)(F)F)s2)CC1)N1CCC(Nc2ccc([N+](=O)[O-])c(C(F)(F)F)c2)CC1` [Example 124, 1-[4-(4-nitro-3-trifluoromethyl-phenylamino)-piperidin-1-yl]-3-[4-(5-trifluoromethyl-1,3,4-thiadiazol-2-yl)-piperazin-1-yl]-propan-1-one], the inhibition in vivo at 10 mg/kg turned out to be 47% in the assay on Haemonchus contortus (po) and 75% in the assay with Haemonchus contortus (sc). The minimal effective concentration is under 1 µM in assay [2] (setting [8]), under 7 µM in assay [2] (setting [9]) and under 1 µM in assay [2] (setting [10]).
As to `O=C(CCN1CCN(c2ccc(C(F)(F)F)nc2)CC1)N1CCC(Nc2ccc([N+](=O)[O-])c(C(F)(F)F)c2)CC1` [Example 126, 1-[4-(4-nitro-3-trifluoromethyl-phenylamino)-piperidin-1-yl]-3-[4-(6-trifluoromethyl-pyridin-3-yl)-piperazin-1-yl]-propan-1-one], the inhibition in vivo at 10 mg/kg was determined as 64% in the assay with Haemonchus contortus (po) and 86% in the assay on Haemonchus contortus (sc). The minimal effective concentration was under 1 µM in assay [2] (setting [8]), under 7 µM in assay [2] (setting [9]) and under 1 µM in assay [2] (setting [10]).
As for `O=C(CCCC1CCN(c2ccc(C(F)(F)F)cc2)CC1)N1CCC(Nc2ccc([N+](=O)[O-])c(C(F)(F)F)c2)CC1` [Example 134, 1-[4-(4-nitro-3-trifluoromethyl-phenylamino)-piperidin-1-yl]-4-[1-(4-trifluoromethyl-phenyl)-piperidin-4-yl]-butan-1-one], the inhibition in vivo at 10 mg/kg in the assay with Haemonchus contortus (po) and in the assay on Haemonchus contortus (sc) was 99% throughout. In addition, the minimal effective concentration in assay [2] (setting [8]) was under 1 µM; in assay [2] (setting [9]), under 7 µM; in assay [2] (setting [10]), under 1 µM.
As for `O=C(CCCN1CCN(c2ccc(C(F)(F)F)cn2)CC1)N1CCC(Nc2ccc([N+](=O)[O-])c(C(F)(F)F)c2)CC1` [Example 151, 1-[4-(4-nitro-3-trifluoromethyl-phenylamino)-piperidin-1-yl]-4-[4-(5-trifluoromethyl-pyridin-2-yl)-piperazin-1-yl]-butan-1-one], the inhibition in vivo at 10 mg/kg in the assay with Haemonchus contortus (po) is 88%; with Haemonchus contortus (sc), 84%. Also, the minimal effective concentration in assay [2] (setting [8]) is under 1 µM; in assay [2] (setting [9]), under 7 µM; in assay [2] (setting [10]), under 1 µM.
For the compound `O=C(CCN1CCN(c2ccc(Cl)cc2)CC1)N1CCC(Nc2ccc(S(=O)(=O)c3ccc(F)cc3)cc2)CC1` [Example 295], the inhibition in vivo at 50 mg/kg in the assay on Haemonchus contortus (setting [11]) turned out to be 97%; in the assay with Haemonchus contortus (setting [12]) it was 0%. In addition, the minimal effective concentration in assay [2] (setting [7]) was under 1 µM.
In the case of `CC(C)(C)c1ccc(N2CCN(CCCC(=O)N3CCC(Nc4ccc(C#N)c(Cl)c4)CC3)CC2)cc1` [Example 322], the inhibition in vivo at 50 mg/kg in the assay with Haemonchus contortus (po) worked out at 67%; in the assay with Haemonchus contortus (sc) it was 73%. Further, the minimal effective concentration in assay [2] (setting [10]) is under 1 µM.
`CC(C)(C)c1ccc(N2CCN(CCC(=O)N3CCC(Nc4ccc(C#N)c(C(F)(F)F)c4)CC3)CC2)cc1` [Example 324]: the inhibition in vivo at 50 mg/kg in the assay with Haemonchus contortus (po) came out at 89%; with Haemonchus contortus (sc), 90%. Besides, in assay [2] (setting [10]), the minimal effective concentration was under 1 µM.
Consider `CCOC(=O)c1ccc(NC2CCN(C(=O)CCN3CCN(c4ccc(C(C)(C)C)cc4)CC3)CC2)cc1` [Example 334], for which the figures for the inhibition in vivo at 50 mg/kg in the assay on Haemonchus contortus (setting [11]) and in the assay on Haemonchus contortus (setting [12]) were 78% and 82%, respectively. The minimal effective concentration in assay [2] (setting [5]) and in assay [2] (setting [7]) was under 1 µM throughout.
In the case of `CN(C)S(=O)(=O)c1ccc(NC2CCN(C(=O)CCN3CCN(c4ccc(C(C)(C)C)cc4)CC3)CC2)cc1C(F)(F)F` [Example 345], the figures for the inhibition in vivo at 50 mg/kg in the assay on Haemonchus contortus (setting [11]) and in the assay on Haemonchus contortus (setting [12]) were 76% and 61%, respectively. In addition, the minimal effective concentration in assay [2] (setting [7]) was under 1 µM.
For `CC(C)(C)c1ccc(C2CCN(CCC(=O)N3CCC(Nc4ccc([N+](=O)[O-])c(C(F)(F)F)c4)CC3)CC2)cc1` [Example 367], in that order: 73%, 45% and under 1 µM.
As for `COc1cc(NC2CCN(C(=O)CCN3CCN(c4ccc(Cl)cc4)CC3)CC2)ccc1[N+](=O)[O-]` [Example 385], the inhibition in vivo at 50 mg/kg with Haemonchus contortus (setting [11]) came to 0%; in the assay on Haemonchus contortus (setting [12]) it was 83%. Further, the minimal effective concentration is under 1 µM in assay [2] (setting [5]), under 7 µM in assay [2] (setting [6]) and under 1 µM in assay [2] (setting [7]).
For the compound `Cn1nnc(-c2ccc(NC3CCN(C(=O)CCN4CCN(c5ccc(C(C)(C)C)cc5)CC4)CC3)cc2)n1` [Example 444], the inhibition in vivo at 50 mg/kg in the assay with Haemonchus contortus (setting [11]) worked out at 78%; in the assay with Haemonchus contortus (setting [12]), 52%. For the same compound, the minimal effective concentration in assay [2] (setting [5]) is under 1 µM; in assay [2] (setting [6]), under 7 µM; in assay [2] (setting [7]) it was under 1 µM.
On to `CCCc1ccc(C2CCN(CCC(=O)N3CCC(Oc4ccc([N+](=O)[O-])c(OCC)c4)CC3)CC2)cc1` [Example 579], for which the inhibition in vivo at 50 mg/kg in the assay on Haemonchus contortus (po) and with Haemonchus contortus (sc) was 96% throughout. Further, the minimal effective concentration in assay [2] (setting [10]) was under 1 µM.

The record behind these values is US9096524B2, “Anthelmintic agents and their use” (Intervet International B.V., priority 2009, dated 2015).
